Patent US8841312B2, “Fused pyridine, pyrimidine and triazine compounds as cell cycle inhibitors” (Amgen Inc., priority 2007, dated 2014)

How the values were obtained:
Cdk4/CyclinD1 = Cdk4/CyclinD1 (Homo sapiens (Human), UniProt P11802); test: Cdk4 kinase inhibition assay with recombinant Cdk4/CyclinD1, Rb substrate, [33P]-ATP filter plate; format: biochemical; conditions: 25 μM ATP, read-out: Cdk 4 IC50
Outline: (§1)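 Recombinant Cdk4/CyclinD1 or Cdk6/CyclinD3 phosphorylated Rb protein with [33P]-ATP for 1 h at room temperature. Protein was TCA-precipitated on filter plates and bound radioactivity counted. IC50 by nonlinear regression.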

Cdk6/CyclinD3 = Cdk6/CyclinD3 (Homo sapiens (Human), UniProt Q00534); test: Cdk6 kinase inhibition assay with recombinant Cdk6/CyclinD3, Rb substrate, [33P]-ATP filter plate; format: biochemical; conditions: 25 μM ATP, read-out: Cdk 6 IC50
Chain of Cdk6/CyclinD3 (Q00534 whole entry): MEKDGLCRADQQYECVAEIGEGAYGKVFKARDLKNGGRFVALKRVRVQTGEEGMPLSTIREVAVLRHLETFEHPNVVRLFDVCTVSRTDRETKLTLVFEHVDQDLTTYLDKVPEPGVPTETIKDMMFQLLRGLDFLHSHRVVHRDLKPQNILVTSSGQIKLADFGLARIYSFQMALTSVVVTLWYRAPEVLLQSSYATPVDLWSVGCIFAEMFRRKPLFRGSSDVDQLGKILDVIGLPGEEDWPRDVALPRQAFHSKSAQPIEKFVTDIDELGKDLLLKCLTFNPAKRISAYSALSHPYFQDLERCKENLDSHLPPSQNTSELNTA
Chain of Cdk6/CyclinD3 (P30281 whole entry partner): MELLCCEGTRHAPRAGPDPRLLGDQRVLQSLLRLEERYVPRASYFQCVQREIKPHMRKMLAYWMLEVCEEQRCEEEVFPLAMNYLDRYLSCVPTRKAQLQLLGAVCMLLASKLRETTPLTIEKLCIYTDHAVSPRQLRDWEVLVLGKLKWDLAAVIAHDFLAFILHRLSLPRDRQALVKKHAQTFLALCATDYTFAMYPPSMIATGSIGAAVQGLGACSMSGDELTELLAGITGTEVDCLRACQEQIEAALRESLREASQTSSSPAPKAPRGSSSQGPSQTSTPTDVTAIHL
Outline: as §1

Chain of Cdk4/CyclinD1 (P11802 whole entry): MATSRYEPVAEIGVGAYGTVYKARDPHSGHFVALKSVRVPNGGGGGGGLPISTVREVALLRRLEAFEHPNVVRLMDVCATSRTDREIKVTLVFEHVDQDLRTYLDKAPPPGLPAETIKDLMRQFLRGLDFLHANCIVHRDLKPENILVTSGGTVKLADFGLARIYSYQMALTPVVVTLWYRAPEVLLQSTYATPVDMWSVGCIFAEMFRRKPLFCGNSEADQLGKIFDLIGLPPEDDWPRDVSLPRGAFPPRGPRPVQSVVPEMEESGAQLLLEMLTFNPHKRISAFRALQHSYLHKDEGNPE
Chain of Cdk4/CyclinD1 (P24385 whole entry partner): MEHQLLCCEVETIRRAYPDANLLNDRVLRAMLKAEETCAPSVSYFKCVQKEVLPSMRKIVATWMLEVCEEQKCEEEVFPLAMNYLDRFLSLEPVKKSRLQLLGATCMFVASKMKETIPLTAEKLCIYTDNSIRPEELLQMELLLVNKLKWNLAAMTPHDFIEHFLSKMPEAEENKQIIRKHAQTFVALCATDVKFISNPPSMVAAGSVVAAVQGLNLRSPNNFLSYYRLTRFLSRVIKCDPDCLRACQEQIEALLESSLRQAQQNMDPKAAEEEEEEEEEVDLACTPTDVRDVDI

| Compound | IC50 (Cdk4/CyclinD1) [nM] | IC50 (Cdk6/CyclinD3) [nM] |
| --- | --- | --- |
| C[C@@H]1CN(c2ccc(Nc3ncc4c5ccncc5n(C5CCCC5)c4n3)nn2)CCN1 [Example 4] | 3.9 | 11.5 |
| O[C@@H]1CCCN(C2CCN(c3ccc(Nc4ncc5c6ccncc6n(C6CCCC6)c5n4)nn3)CC2)C1 [Example 451] | 13 | 18 |
| C[C@H](CO)NC1CCN(c2ccc(Nc3ncc4c5ccncc5n(C5CCCC5)c4n3)nc2)CC1 [Example 436, (2R)-2-((1-(6-((9-cyclopentyl-9H-pyrido[4′,3′:4,5]pyrrolo[2,3-d]pyrimidin-2-yl)amino)-3-pyridinyl)-4-piperidinyl)amino)-1-propanol] | 13 | 5.1 |
| COC(=O)CNC1CCN(c2ccc(Nc3ncc4c5ccncc5n(C5CCCC5)c4n3)nc2)CC1 [Example 472] | 24 | 34 |
| Oc1ccc(-c2ccc(Nc3ncc4c5ccncc5n(C5CCCC5)c4n3)nn2)cn1 [Example 266, 5-(6-((9-Cyclopentyl-9H-pyrido[4′,3′:4,5]pyrrolo[2,3-d]pyrimidin-2-yl)amino)-3-pyridazinyl)-2-pyridinol] | 3.1 | 6.5 |
| CN1CCN(c2ccc(Nc3ncc4c5ccncc5n(C5CCCC5)c4n3)nc2)CC1 [Example 2, 9-Cyclopentyl-N-(5-(1-(N^4-methylpiperazinyl))-2-pyridinyl)-9H-pyrido-[4′,3′:4,5]pyrrolo[2,3-d]pyrimidin-2-amine] | 13 | 10 |
| CC(C)(CO)Cn1c2cnccc2c2cnc(Nc3ccc(N4CCNCC4)cn3)nc21 [Example 45, 2,2-Dimethyl-3-[2-(5-piperazin-1-yl-pyridin-2-ylamino)-pyrido[4′,3′:4,5]pyrrolo[2,3-d]pyrimidin-9-yl]-propan-1-ol] | 73 | 129 |
| CC[C@@H](C)n1c2cnccc2c2cnc(Nc3ccc(N4CCN[C@@H](C)C4)cn3)nc21 [Example 321] | 7 | 11 |
| C[C@H](O)CNC1CCN(c2ccc(Nc3ncc4c5ccncc5n(C5CCCC5)c4n3)nn2)CC1 [Example 439] | 3.7 | 5.7 |
| CCC(C)(C)n1c2cnccc2c2cnc(Nc3ccc(N4CCC(N(C)C)CC4)nn3)nc21 [Example 156, N-(6-(4-(dimethylamino)-1-piperidinyl)-3-pyridazinyl)-9-(1,1-dimethylpropyl)-9H-pyrido[4′,3′:4,5]pyrrolo[2,3-d]pyrimidin-2-amine] | 7 | 14 |
| c1cc2c3cnc(Nc4ccc(N5CCCNCC5)nn4)nc3n(C3CCCC3)c2cn1 [Example 117] | 5.5 | 6.8 |
| CC[C@@H](C)n1c2cnccc2c2cnc(Nc3ccc(N4CC[C@@H](O)C4)nn3)nc21 [Example 319] | 22 | 49 |
| c1cc2c3cnc(Nc4ccc(N5CCOCC5)nn4)nc3n(C3CCCC3)c2cn1 [Example 106] | 4 | 24.3 |
| O=C1CN(Cc2ccc(Nc3ncc4c5ccncc5n(C5CCCC5)c4n3)nc2)CCN1 [Example 225, 4-((6-((9-cyclopentyl-9H-pyrido[4′,3′:4,5]pyrrolo[2,3-d]pyrimidin-2-yl)amino)-3-pyridinyl)methyl)-2-piperazinone] | 4 | 3 |
| CNC1CCN(c2ccc(Nc3ncc4c5ccncc5n(C5CCCC5)c4n3)nn2)CC1 [Example 77] | 3 | 11 |
| CC1CCC(n2c3cnccc3c3cnc(Nc4ccc(N5CCNCC5)cn4)nc32)CC1 (stereo not drawn) [Example 55, 9-(4-methylcyclohexyl)-N-(5-(1-piperazinyl)-2-pyridinyl)-9H-pyrido[4′,3′:4,5]pyrrolo[2,3-d]pyrimidin-2-amine] | 1.2 | 4.4 |
| O=C1CNCCN1Cc1ccc(Nc2ncc3c4ccncc4n(C4CCCC4)c3n2)nc1 [Example 226, 1-((6-((9-cyclopentyl-9H-pyrido[4′,3′:4,5]pyrrolo[2,3-d]pyrimidin-2-yl)amino)-3-pyridinyl)methyl)-2-piperazinone] | 3.2 | 2.7 |
| c1cc2c3cnc(Nc4ccc(N5CCCC5)nn4)nc3n(C3CCCC3)c2cn1 [Example 111] | 4.4 | 19.7 |
